In US6936628B2, “Oral administration of epothilones” (Bristol-Myers Squibb Company, priority 2002, dated 2005):

Assays:
[1] = Water solubility (statement); type: physicochemical
Description: For these reasons Compound A may be formulated in an entirely aqueous excipient system for parenteral administration. To determine whether differences in the dosing vehicle may affect the antitumor activity of Compound A, a direct head-to-head comparison of the antitumor efficacy of Compound A formulated in either cremophor/ethanol/water (10:10:80, v/v/v) or sodium acetate buffer (30 mM, pH 5.0) was conducted. No formulation related effect was observed.

[2] = Single dose pharmacokinetic study in dogs; type: in vivo, beagle dogs
Description: The vehicle used for both IV and oral dose was propylene glycol:ethanol:phosphate buffer (pH 7.4-8.0) (40:5:55). […] The VSS value after IV administration was 4.7 L/kg, which is greater than the reported total body water of 0.6 L/kg in dogs, indicating significant extravascular distribution of Compound A. The T-HALF of Compound A was 3.9 and 3.1 h after IV and oral administration, respectively.

[3] = Microsomal incubation, rat; details: rat liver microsomes + NADPH, 20 μM
[4] = tested on: sc Pat-7 human ovarian carcinoma; assay: Minimum effective infusional dose regimen versus sc Pat-7; type: in vivo, mice; details: constant-rate IV infusion over 10 hr
[5] = Microsomal incubation, mouse; details: mouse liver microsomes + NADPH, 20 μM
[6] = Oral bioavailability in humans; details: in vivo, human patients
From the text: Compound A was well absorbed orally, providing a favorable drug exposure profile that is consistant with efficacious exposure in preclinical cancer models.

[7] = Liver S9 incubation, mouse; details: mouse liver S9, 20 μM
[8] = biological target: CYP2D6 (Homo sapiens, UniProt P10635); assay: Inhibition of human CYP enzymes, CYP2D6
CYP2D6, sequence (P10635 whole entry): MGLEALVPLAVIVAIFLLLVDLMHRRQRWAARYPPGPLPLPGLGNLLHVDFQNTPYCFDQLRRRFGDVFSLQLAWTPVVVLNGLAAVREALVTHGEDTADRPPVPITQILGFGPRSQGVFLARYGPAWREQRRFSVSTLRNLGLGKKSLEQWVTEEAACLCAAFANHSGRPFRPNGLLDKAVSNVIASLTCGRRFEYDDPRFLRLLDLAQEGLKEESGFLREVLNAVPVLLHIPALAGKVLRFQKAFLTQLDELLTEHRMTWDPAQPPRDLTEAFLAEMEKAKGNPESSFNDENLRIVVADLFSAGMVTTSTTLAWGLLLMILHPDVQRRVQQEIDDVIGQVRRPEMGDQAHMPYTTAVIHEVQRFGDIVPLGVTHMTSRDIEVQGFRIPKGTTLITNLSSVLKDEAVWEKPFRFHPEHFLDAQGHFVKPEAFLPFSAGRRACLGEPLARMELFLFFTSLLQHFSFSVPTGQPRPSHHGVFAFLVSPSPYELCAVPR

[9] = in vivo; details: male, Sprague-Dawley, rat, plasma, 2 mg/kg, rats, IA 2 mg/kg
From the text: A total of eight rats were divided into four groups (three IA groups and one oral group), with two rats in each group. […] The vehicle used for the oral administration was propylene glycol:ethanol:phophate buffer, 1 M, pH 8 (58:12:30).

[10] = biological target: CYP2C9 (Homo sapiens, UniProt P11712); assay: biochemical
CYP2C9, sequence (P11712 whole entry): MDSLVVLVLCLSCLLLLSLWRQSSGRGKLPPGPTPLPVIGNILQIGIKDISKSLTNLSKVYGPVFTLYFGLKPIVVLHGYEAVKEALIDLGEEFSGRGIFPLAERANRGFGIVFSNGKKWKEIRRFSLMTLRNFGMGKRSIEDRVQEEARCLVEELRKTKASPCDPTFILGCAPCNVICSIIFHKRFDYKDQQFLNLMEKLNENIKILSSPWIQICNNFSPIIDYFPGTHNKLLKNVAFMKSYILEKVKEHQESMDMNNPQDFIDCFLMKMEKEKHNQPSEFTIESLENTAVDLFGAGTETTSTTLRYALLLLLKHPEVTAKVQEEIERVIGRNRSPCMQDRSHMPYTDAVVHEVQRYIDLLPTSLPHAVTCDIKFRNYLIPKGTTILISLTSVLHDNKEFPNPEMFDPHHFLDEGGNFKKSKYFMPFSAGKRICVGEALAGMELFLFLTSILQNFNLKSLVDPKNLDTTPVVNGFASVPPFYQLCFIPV

[11] = biological target: CYP3A4 (Homo sapiens, UniProt P08684); assay: Metabolism by specific CYP enzymes (human liver microsomes with specific inhibitors); type: in vitro ADME
CYP3A4, sequence (P08684 whole entry): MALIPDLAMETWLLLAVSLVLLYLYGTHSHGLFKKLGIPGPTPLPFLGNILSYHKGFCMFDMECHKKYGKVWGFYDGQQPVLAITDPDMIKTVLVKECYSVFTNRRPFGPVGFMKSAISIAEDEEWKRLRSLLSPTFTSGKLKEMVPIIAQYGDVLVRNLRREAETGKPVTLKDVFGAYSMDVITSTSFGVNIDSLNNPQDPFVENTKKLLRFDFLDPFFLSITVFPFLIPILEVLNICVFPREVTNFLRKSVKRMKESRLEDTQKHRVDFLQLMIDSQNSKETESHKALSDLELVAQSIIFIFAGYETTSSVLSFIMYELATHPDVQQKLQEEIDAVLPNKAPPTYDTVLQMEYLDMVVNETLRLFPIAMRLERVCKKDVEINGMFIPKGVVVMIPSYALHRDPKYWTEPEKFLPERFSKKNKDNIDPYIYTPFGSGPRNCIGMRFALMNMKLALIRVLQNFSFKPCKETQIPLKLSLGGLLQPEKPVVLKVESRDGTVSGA
Description: Compound A was incubated with human liver microsomes along with compounds specific for the inhibition of individual cytochrome P450s commonly involved in drug metabolism. The inhibitors used were; furafylline (CYP1A2), sulfaphenazole (CYP2C9), tranylcypromine (CYP2C19), quinidine (CYP2D6), troleandomycin (CYP3A4), and ketoconazole (CYP3A4).

[12] = tested on: Pat-7 human ovarian carcinoma; details: Balb/c nu/nu, mouse, in vivo, iv
[13] = Effects of formulation on antitumor efficacy; type: in vivo
[14] = 40 mg/m2, oral, 40 mg/m^2, n=10

C/C(=C\c1csc(CN)n1)[C@@H]1C[C@@H]2O[C@]2(C)CCC[C@H](C)[C@H](O)[C@@H](C)C(=O)C(C)(C)[C@@H](O)CC(=O)O1 (relative stereo) [Compound A, [1S-[1R*,3R*(E),7R*,10S*,11R*,12R*,16S*]]-3-[2-[2-(aminomethyl)-4-thiazolyl]-1-methylethenyl]-7,11-dihydroxy-8,8,10,12,16-pentamethyl-4,17-dioxabicyclo[14.1.0]heptadecane-5,9-dione]
water solubility [1]: highly water-soluble | CLT ([2]; IV 0.5 mg/kg): about 25.7 mL/min/kg | T-HALF ([2]; IV 0.5 mg/kg): 3.9 h | Vd ([2]; male, beagle, dog, plasma, IV 0.5 mg/kg, read-out: VSS): 4.7 L/kg | bioavailability ([2]; male, beagle, dog, plasma, oral 1 mg/kg vs IV 0.5 mg/kg, read-out: mean absolute oral bioavailability): 40% | T-HALF ([2]; oral 1 mg/kg): 3.1 h | rate of oxidative metabolism [3]: 0.05 mmol/min/mg protein | Tumor growth delay equivalent to LCK ([4]; 2 mg/kg): 0.1 | Tumor growth delay equivalent to LCK ([4]; 4 mg/kg): 0.7 | Tumor growth delay equivalent to LCK ([4]; 8 mg/kg): 1.1 | Tumor growth delay equivalent to LCK ([4]; 16 mg/kg): 1.7 | rate of oxidative metabolism [5]: 0.3 | AUC [6, 14]: 631 ng·h/mL | Cmax [6, 14]: 177 ng/mL | half-life ([6]; 40 mg/m2, oral, 40 mg/m^2, n=10, read-out: Half-Life (SD) (converted)): 29.8 h | Tmax ([6]; 40 mg/m2, oral, 40 mg/m^2, n=10, read-out: Tmax, median (minimum, maximum)): 1 h | bioavailability ([6]; oral vs IV, 40 mg/m^2, n = 9, read-out: Bioavailability (SD)): 27% | rate of oxidative metabolism [7]: 0.06 | IC50 [8]: > 70 µM | AUC ([9]; mean AUC, vehicle 1 ethanol:water (10:90)): 133 ng·h/mL | AUC ([9]; mean AUC, vehicle 2 cremophor:ethanol:water (10:10:80)): 708 ng·h/mL | AUC ([9]; pH 7.4, mean AUC, vehicle 3 propylene glycol:ethanol:phosphate buffer pH 7.4 (40:5:55)): 210 ng·h/mL | IC50 [10]: 10.6 µM | effect of CYP3A4 inhibitors (troleandomycin, ketoconazole) on biotransformation [11]: completely inhibited | OD (optimal dose or maximum tolerated dose) [12]: 8 mg/kg | LCK ([13]; formulated in cremophor/ethanol/water (10:10:80, v/v/v)): 3.3 | LCK ([13]; formulated in sodium acetate buffer (30 mM, pH 5.0)): 3.4
